Data on ten molecules can be found in patent US10314841B2, “Substituted pyrazoles as IRAK inhibitors” (Merck Patent GmbH, priority 2014, dated 2019).

Test [1] deals with TLR7 induced IL-6 secretion in human PBMC's. Description: TLR7 induced IL-6 in human PBMC's. The format is cell-based. The settings on record: human PBMC, TLR7 specific ligand 2 uM overnight, IL-6 Alpha LISA; read-out: TLR7 induced IL-6 secretion in hPBMC's (IC50). How it is done:
TLR7 Induced IL-6 in Human PBMC's Human PBMC assay was used as one of the functional assays to monitor the activity of IRAK1 and IRAK4 small molecule inhibitors on TLR7 induced IL-6 secretion in human mononuclear cells (PBMC's). Human PBMCs were prepared from buffy coats (whole blood enriched with leukocytes and platelets) obtained from healthy volunteers used either fresh or frozen are plated in assay media (RPMI+2% P/S/L-glu+10% HI-FBS) and pre-treated with compounds in DMSO/media (range of concentrations from 25 uM to 0.4 nM) or controls (0.25% DMSO) for 30 minutes at 37° C. in assay media. Following pre-treatment with IRAK1 and IRAK4 inhibitors, PBMC's were stimulated with TLR7 specific ligand (2 uM) overnight (16-18 hrs) at 37° C. After incubation supernatant was transferred to 384 well PE AlphaPlate-384 (6005350) and IL-6 is quantified using Perkin Elmer IL-6 Alpha LISA kit (A[…]). Plates were read on an Envision® plate reader with Alpha Technology®.
For orientation: Alpha assays give light when donor and acceptor beads are brought close together.

The target of test [2] is T1, IRAK1 (His-TEV-IRAK1 (194-712)) (Homo sapiens, UniProt P51617).
T1 construct: His-TEV-IRAK1 (194-712); His (N); TEV cleavage site (N)
Description: IRAK1 enzymatic assay. It is filed as biochemical. The conditions noted are these: human recombinant His-TEV-IRAK1, ATP 1 μM, 3 hours at 30° C., FlashPlate. The protocol: IRAK1 Enzymatic Assay IRAK1 is a human purified recombinant enzyme (His-TEV-IRAK1 (194-712)). In this assay, IRAK-1 hydrolyses ATP and autophosphorylates. Measurement of IRAK-1 inhibition was performed in streptavidin coated 384 well FlashPlate (PerkinElmer #SM[…]). His-TEV-IRAK-1 (15 ng/well), ATP (1 μ[…]]ATP 0.25 μCi/well) and compounds in DMSO (range of concentrations from 20 μM to 1 nM) or controls (2% DMSO) were incubated for 3 hours at 30° C. in assay buffer: Hepes pH7.0 50 mM, Fatty acid-free BSA 0.1%, Dithiothreitol DTT 2 mM, MgCl2 10 mM, EGTA 0.5 mM, Triton-X-100 0.01%. Kinase reaction was stopped by addition of EDTA. Supernatant was discarded, plates were washed three times with 150 mM NaCl and radioactivity was then measured in a Microbeta Trilux reader.

The target of test [3] is T2, IRAK4 (His-TEV-IRAK4) (Homo sapiens, UniProt Q9NWZ3).
T2 construct: His (N); TEV cleavage site (N)
T2 sequence (Q9NWZ3 1-460): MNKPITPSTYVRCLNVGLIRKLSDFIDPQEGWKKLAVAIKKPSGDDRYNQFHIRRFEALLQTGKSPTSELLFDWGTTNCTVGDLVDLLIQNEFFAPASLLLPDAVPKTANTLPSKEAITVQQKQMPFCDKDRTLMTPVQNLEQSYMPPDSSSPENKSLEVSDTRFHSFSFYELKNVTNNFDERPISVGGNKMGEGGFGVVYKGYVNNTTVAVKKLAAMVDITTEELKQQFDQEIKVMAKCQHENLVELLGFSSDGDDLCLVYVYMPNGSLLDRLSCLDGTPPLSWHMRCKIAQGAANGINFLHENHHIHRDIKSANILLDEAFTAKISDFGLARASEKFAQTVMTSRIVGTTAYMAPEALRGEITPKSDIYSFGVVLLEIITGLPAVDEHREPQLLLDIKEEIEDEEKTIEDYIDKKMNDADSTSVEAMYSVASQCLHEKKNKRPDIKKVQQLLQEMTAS
As to the kind of experiment: IRAK4 enzymatic assay. The format is biochemical. The settings on record: human recombinant His-TEV-IRAK4, ATP 2 μM, STK1-biotin peptide 300 nM, 3 hours at 30° C., FlashPlate. How it is done: IRAK4 Enzymatic Assay IRAK4 is a human purified recombinant enzyme (His-TEV-[…] (194-712). IRAK4 hydrolyses ATP, autophosphorylates and phosphorylates a Serine/Threonine generic peptidic substrate (STK: 61 ST1BLC from CisBio International based in Bagnols/Cèze FR). Measurement of IRAK-4 inhibition was performed in streptavidin coated 384 well FlashPlate (PerkinElmer #SM[…]). His-TEV-IRAK4 (20 ng/well), ATP (2 μM, [^33P]ATP 0.25 μCi/well), STK1-biotin peptide (300 nM) and compounds in DMSO (range of concentrations from 20 μM to 1 nM) or controls (2% DMSO) were incubated for 3 hours at 30° C. in assay buffer: Hepes pH7.0 50 mM, Fatty acid-free BSA 0.1%, Dithiothreitol DTT 2 mM, MgCl2 10 mM, EGTA 0.5 mM, Tween-20 0.01%, MnCl2 5 mM. Kinase reaction was stopped by addition of EDTA. Supernatant was discarded, plates were washed three times with 150 mM NaCl and radioactivity was then measured in a Microbeta Trilux reader.

T1 sequence (P51617 194-712): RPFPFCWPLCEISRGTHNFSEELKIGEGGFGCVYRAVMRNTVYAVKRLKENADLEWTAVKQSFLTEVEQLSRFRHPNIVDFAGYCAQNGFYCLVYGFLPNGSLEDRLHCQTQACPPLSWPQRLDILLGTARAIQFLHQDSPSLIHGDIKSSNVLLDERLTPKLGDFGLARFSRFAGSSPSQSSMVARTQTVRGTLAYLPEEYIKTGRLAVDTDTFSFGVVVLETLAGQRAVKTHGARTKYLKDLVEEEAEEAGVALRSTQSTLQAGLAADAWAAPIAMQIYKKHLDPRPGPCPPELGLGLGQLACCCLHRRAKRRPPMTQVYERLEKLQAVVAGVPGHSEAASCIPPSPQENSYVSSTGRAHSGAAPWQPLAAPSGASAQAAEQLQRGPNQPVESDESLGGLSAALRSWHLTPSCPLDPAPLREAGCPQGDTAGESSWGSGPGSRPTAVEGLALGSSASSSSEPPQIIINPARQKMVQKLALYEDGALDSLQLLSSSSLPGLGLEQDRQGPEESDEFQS

Consider `C=CC(=O)NC1CCCC(n2cc(-c3cnc(-c4cccc(-c5cnn(C)c5)c4)nc3)cn2)C1` (stereo not drawn) [Compound 15, N-[3-(4-{2-[3-(1-Methyl-1H-pyrazol-4-yl)-phenyl]-pyrimidin-5-yl}-pyrazol-1-yl)-cyclohexyl]-acrylamide], for which the IC50 in test [1], in test [2] and in test [3] was under 100 nM in each case.
For the molecule `C=CC(=O)N[C@H]1CCC[C@H](n2cc(-c3cnc(-c4cccc(-c5cnn(C)c5)c4)nc3)cn2)C1` [Compound 38, N-[(1S,3S)-3-(4-{2-[3-(1-Methyl-1H-pyrazol-4-yl)-phenyl]-pyrimidin-5-yl}-pyrazol-1-yl)-cyclohexyl]-acrylamide], the IC50 was 100 to 1000 nM in test [1], 100 to 1000 nM in test [2] and under 100 nM in test [3].
In the case of `Cn1cc(-c2cccc(-c3ncc(-c4cnn(C5CCC[C@@H](S(C)(=N)=O)C5)c4)cn3)c2)cn1` (stereo partly drawn) [Compound 34, imino(methyl)(Cis-3-(4-(2-(3-(1-methyl-1H-pyrazol-4-yl)phenyl)pyrimidin-5-yl)-1H-pyrazol-1-yl)cyclohexyl)-I6-sulfanone], the values for the IC50 in test [1], in test [2] and in test [3] were 1000 to 20000 nM, 100 to 1000 nM and under 100 nM, respectively.
`Cn1cc(-c2cccc(-c3ncc(-c4cnn(C5CCN(C#N)CC5)c4)cn3)c2)cn1` [Compound 45, 4-(4-{2-[3-(1-Methyl-1H-pyrazol-4-yl)-phenyl]-pyrimidin-5-yl}-pyrazol-1-yl)-piperidine-1-carbonitrile]: the IC50 is 100 to 1000 nM in test [1], 100 to 1000 nM in test [2] and under 100 nM in test [3].
`Cn1cc(-c2cccc(-c3ncc(-c4cnn([C@H]5CCC[C@@H](N6CCOCC6)C5)c4)cn3)c2)cn1` (relative stereo) [Compound 4, 4-[Cis-3-(4-{2-[3-(1-Methyl-1H-pyrazol-4-yl)-phenyl]-pyrimidin-5-yl}-pyrazol-1-yl)-cyclohexyl]-morpholine]: the figures for the IC50 in test [1], in test [2] and in test [3] were 100 to 1000 nM, 100 to 1000 nM and under 100 nM, respectively.
Take `Cn1cc(-c2cccc(-c3ncc(-c4cnn([C@H]5CCC[C@H](S(C)(=N)=O)C5)c4)cn3)c2)cn1` (relative stereo) [Compound 35]: the results for the IC50 in test [1], in test [2] and in test [3] were 1000 to 20000 nM, 100 to 1000 nM and under 100 nM, respectively.
Taken in the same sequence, the figures for `Cn1cc(-c2cccc(-c3ncc(-c4cnn([C@@H]5CCC[C@@H](NS(C)(=O)=O)C5)c4)cn3)c2)cn1` (single isomer, unassigned) [Compound 27] were 100 to 1000 nM, 100 to 1000 nM and under 100 nM.
For `C=CS(=O)(=O)N1CCC(n2cc(-c3cnc(-c4cccc(-c5cnn(C)c5)c4)nc3)cn2)CC1` [Compound 18, 5-[1-(1-Ethenesulfonyl-piperidin-4-yl)-1H-pyrazol-4-yl]-2-[3-(1-methyl-1H-pyrazol-4-yl)-phenyl]-pyrimidine], the IC50 in test [1], in test [2] and in test [3] was under 100 nM throughout.
As to `Cn1cc(-c2cccc(-c3ncc(-c4cnn(C5CCCC(N6CCC(F)(F)CC6)C5)c4)cn3)c2)cn1` (stereo not drawn) [Compound 11, 5-{1-[3-(4,4-Difluoro-piperidin-1-yl)-cyclohexyl]-1H-pyrazol-4-yl}-2-[3-(1-methyl-1H-pyrazol-4-yl)-phenyl]-pyrimidine], the IC50 in test [1] was 100 to 1000 nM; in test [2], 100 to 1000 nM; in test [3], under 100 nM.
With `C=CC(=O)N1CCCC(n2cc(-c3cnc(-c4cccc(-c5cnn(C)c5)c4)nc3)cn2)C1` (stereo not drawn) [Compound 14, 1-[3-(4-{2-[3-(1-Methyl-1H-pyrazol-4-yl)-phenyl]-pyrimidin-5-yl}-pyrazol-1-yl)-piperidin-1-yl]-propenone], the IC50 in test [1] is 100 to 1000 nM; in test [2] it was 100 to 1000 nM; in test [3], under 100 nM.

In general, IC50 refers to the midpoint of a concentration-inhibition curve.
